22 compounds from patent US20220144839A1, “INDOLE AHR INHIBITORS AND USES THEREOF” (Ikena Oncology, Inc., priority 2018, published 2022) can be followed below.

For the experiment, the target named is T1, AHR (UniProt P35869).
T1 sequence (P35869 1-848): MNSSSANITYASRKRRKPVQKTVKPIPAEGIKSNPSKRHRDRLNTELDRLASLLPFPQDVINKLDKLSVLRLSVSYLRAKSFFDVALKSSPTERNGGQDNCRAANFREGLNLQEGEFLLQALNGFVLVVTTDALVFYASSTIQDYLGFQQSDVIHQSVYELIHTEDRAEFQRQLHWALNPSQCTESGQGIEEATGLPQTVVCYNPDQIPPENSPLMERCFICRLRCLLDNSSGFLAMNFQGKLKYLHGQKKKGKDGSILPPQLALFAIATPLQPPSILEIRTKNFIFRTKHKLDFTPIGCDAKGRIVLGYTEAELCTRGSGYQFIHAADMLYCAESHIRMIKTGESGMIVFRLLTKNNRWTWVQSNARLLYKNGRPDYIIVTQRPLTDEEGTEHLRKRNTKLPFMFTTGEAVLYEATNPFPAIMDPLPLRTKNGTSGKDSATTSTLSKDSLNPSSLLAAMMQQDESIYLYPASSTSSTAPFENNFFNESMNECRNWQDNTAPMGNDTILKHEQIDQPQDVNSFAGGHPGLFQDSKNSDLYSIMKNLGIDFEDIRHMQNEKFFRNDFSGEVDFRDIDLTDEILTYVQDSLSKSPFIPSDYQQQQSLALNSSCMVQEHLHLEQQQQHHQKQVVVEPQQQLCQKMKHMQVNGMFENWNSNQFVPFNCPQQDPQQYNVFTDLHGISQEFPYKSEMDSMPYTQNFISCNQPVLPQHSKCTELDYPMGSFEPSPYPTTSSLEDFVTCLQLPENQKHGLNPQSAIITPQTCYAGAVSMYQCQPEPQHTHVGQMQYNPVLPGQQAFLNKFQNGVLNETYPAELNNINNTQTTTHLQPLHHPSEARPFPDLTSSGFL
Put plainly: DRE-Luciferase Reporter Assay (Alternate Method), Example 1B. Conditions: concentration which inhibits half of the luciferase activity induced by AHR activating ligand; DRE-luciferase reporter cell line. Format: cell-based. Put shortly:
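Murine (Hepa1-6, Hepa-1c1c7) or human (HepG2) cells carrying a stable or transient DRE-luciferase reporter, stimulated with an AHR agonist (e.g. TCDD, kynurenine, ITE, BNF, FICZ) plus compound at plating or after overnight culture at 37 °C. Luciferase read after 4, 15 or 24 h; IC50 as concentration halving agonist-only signal relative to no-ligand baseline.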
(In general: Reporter assays use an easily measured gene product as a stand-in for the process of interest.)
For orientation: IC50 means the concentration at which inhibition is half-maximal. `CC(C)c1cnn2c(N[C@@H]3CCc4[nH]c5ccccc5c4C3)nc(-c3cnsc3)nc12` [Compound I-53, (3R)—N-(8-Isopropyl-2-isothiazol-4-yl-pyrazolo[1,5-a][1,3,5]triazin-4-yl)-2,3,4,9-tetrahydro-1H-carbazol-3-amine] displayed an IC50 of 0.5 to 1 µM.

Turning to `CC(C)c1cnn2c(NCCCCO)nc(-c3cnsc3)nc12` [Compound I-54, 4-[(8-Isopropyl-2-isothiazol-4-yl-pyrazolo[1,5-a][1,3,5]triazin-4-yl)amino]butan-1-ol], the IC50 was over 1.5 µM.

Compound `CC(C)c1cnn2c(N[C@H]3Cc4cncnc4NC3=O)nc(-c3cncc(F)c3)nc12` [Compound I-55a] registered an IC50 of over 1.5 µM.

Take `CC(C)c1cnn2c(N[C@@H]3Cc4cncnc4NC3=O)nc(-c3cncc(F)c3)nc12` [Compound I-55b, (6R)-6-[[2-(5-fluoro-3-pyridyl)-8-isopropyl-pyrazolo[1,5-a][1,3,5]triazin-4-yl]amino]-6,8-dihydro-5H-pyrido[2,3-d]pyrimidin-7-one]: the IC50 is over 1.5 µM.

With `C[C@H](NC(=O)N1CCOCC1)c1cnn2c(N[C@@H]3CCc4[nH]c5ccccc5c4C3)nc(-c3cncc(F)c3)nc12` [Compound I-56a, N-[(1S)-1-[2-(5-Fluoro-3-pyridyl)-4-[[(3R)-2,3,4,9-tetrahydro-1H-carbazol-3-yl]amino]pyrazolo[1,5-a][1,3,5]triazin-8-yl]ethyl]morpholine-4-carboxamide], the IC50 is under 0.5 µM.

Consider `C[C@@H](NC(=O)N1CCOCC1)c1cnn2c(N[C@@H]3CCc4[nH]c5ccccc5c4C3)nc(-c3cncc(F)c3)nc12` [Compound I-56b, N-[(1R)-1-[2-(5-Fluoro-3-pyridyl)-4-[[(3R)-2,3,4,9-tetrahydro-1H-carbazol-3-yl]amino]pyrazolo[1,5-a][1,3,5]triazin-8-yl]ethyl]morpholine-4-carboxamide], for which the IC50 was under 0.5 µM.

With `CC(C)c1cnn2c(NCCc3cccnc3N)nc(-c3cncc(F)c3)nc12` [Compound I-58, N-[2-(2-Amino-3-pyridyl)ethyl]-2-(5-fluoro-3-pyridyl)-8-isopropyl-pyrazolo[1,5-a][1,3,5]triazin-4-amine], the IC50 is under 0.5 µM.

In turn, `[2H]C([2H])([2H])C(c1cnn2c(N[C@@H]3CCc4[nH]c5ccccc5c4C3)nc(-c3cncc(F)c3)nc12)C([2H])([2H])[2H]` [Compound I-59, (3R)—N-[2-(5-Fluoro-3-pyridyl)-8-[2,2,2-trideuterio-1-(trideuteriomethyl)ethyl]pyrazolo[1,5-a][1,3,5]triazin-4-yl]-2,3,4,9-tetrahydro-1H-carbazol-3-amine] gave an IC50 of under 0.5 µM.

For `CC(C)c1cnn2c(N[C@H]3CNc4ncncc4C3)nc(-c3cncc(F)c3)nc12` [Compound I-60a, (6R)—N-[2-(5-Fluoro-3-pyridyl)-8-isopropyl-pyrazolo[1,5-a][1,3,5]triazin-4-yl]-5,6,7,8-tetrahydropyrido[2,3-d]pyrimidin-6-amine], the IC50 was over 1.5 µM.

`CC(C)c1cnn2c(N[C@@H]3CNc4ncncc4C3)nc(-c3cncc(F)c3)nc12` [Compound I-60b, (6S)—N-[2-(5-fluoro-3-pyridyl)-8-isopropyl-pyrazolo[1,5-a][1,3,5]triazin-4-yl]-5,6,7,8-tetrahydropyrido[2,3-d]pyrimidin-6-amine] gave an IC50 of under 0.5 µM.

For `C[C@H](NC(=O)N1CCN(C)CC1)c1cnn2c(N[C@@H]3CCc4[nH]c5ccccc5c4C3)nc(-c3cncc(F)c3)nc12` [Compound I-61a, N-[(1S)-1-[2-(5-Fluoro-3-pyridyl)-4-[[(3R)-2,3,4,9-tetrahydro-1H-carbazol-3-yl]amino]pyrazolo[1,5-a][1,3,5]triazin-8-yl]ethyl]-4-methyl-piperazine-1-carboxamide], the IC50 was under 0.5 µM.

On to `C[C@@H](NC(=O)N1CCN(C)CC1)c1cnn2c(N[C@@H]3CCc4[nH]c5ccccc5c4C3)nc(-c3cncc(F)c3)nc12` [Compound I-61b, N-[(1R)-1-[2-(5-Fluoro-3-pyridyl)-4-[[(3R)-2,3,4,9-tetrahydro-1H-carbazol-3-yl]amino]pyrazolo[1,5-a][1,3,5]triazin-8-yl]ethyl]-4-methyl-piperazine-1-carboxamide], for which the IC50 lay within 0.5 to 1 µM.

Turning to `CC(C)c1cnn2c(N[C@H]3Cc4[nH]cnc4NC3=O)nc(-c3cncc(F)c3)nc12` [Compound I-62a, (6S)-6-[[2-(5-Fluoro-3-pyridyl)-8-isopropyl-pyrazolo[1,5-a][1,3,5]triazin-4-yl]amino]-1,4,6,7-tetrahydroimidazo[4,5-b]pyridin-5-one], the IC50 was over 1.5 µM.

`CC(C)c1cnn2c(N[C@@H]3Cc4[nH]cnc4NC3=O)nc(-c3cncc(F)c3)nc12` [Compound I-62b, (6R)-6-[[2-(5-fluoro-3-pyridyl)-8-isopropyl-pyrazolo[1,5-a][1,3,5]triazin-4-yl]amino]-1,4,6,7-tetrahydroimidazo [4,5-b]pyridin-5-one]: the IC50 was over 1.5 µM.

`CC(C)c1cnn2c(N[C@@H]3CCc4c(ccnc4N)C3)nc(-c3cncc(F)c3)nc12` [Compound I-63a, (6R)—N6-[2-(5-Fluoro-3-pyridyl)-8-isopropyl-pyrazolo[1,5-a][1,3,5]triazin-4-yl]-5,6,7,8-tetrahydroisoquinoline-1,6-diamine] registered an IC50 of over 1.5 µM.

For `CC(C)c1cnn2c(N[C@H]3CCc4c(ccnc4N)C3)nc(-c3cncc(F)c3)nc12` [Compound I-63b, (6S)—N6-[2-(5-fluoro-3-pyridyl)-8-isopropyl-pyrazolo[1,5-a][1,3,5]triazin-4-yl]-5,6,7,8-tetrahydroisoquinoline-1,6-diamine], the IC50 was over 1.5 µM.

As for `COC[C@H](C)c1cnn2c(N[C@@H]3CCc4[nH]c5ccccc5c4C3)nc(-c3cncc(F)c3)nc12` [Compound I-64a, (3R)—N-[2-(5-Fluoro-3-pyridyl)-8-[(1R)-2-methoxy-1-methyl-ethyl]pyrazolo[1,5-a][1,3,5]triazin-4-yl]-2,3,4,9-tetrahydro-1H-carbazol-3-amine], the IC50 was under 0.5 µM.

In the case of `COC[C@@H](C)c1cnn2c(N[C@@H]3CCc4[nH]c5ccccc5c4C3)nc(-c3cncc(F)c3)nc12` [Compound I-64b, (3R)—N-[2-(5-fluoro-3-pyridyl)-8-[(1S)-2-methoxy-1-methyl-ethyl]pyrazolo[1,5-a][1,3,5]triazin-4-yl]-2,3,4,9-tetrahydro-1H-carbazol-3-amine], the IC50 is under 0.5 µM.

As for `COCC[C@H](C)c1cnn2c(N[C@@H]3CCc4[nH]c5ccccc5c4C3)nc(-c3cncc(F)c3)nc12` [Compound I-65a, (3R)—N-[2-(5-Fluoro-3-pyridyl)-8-[(1S)-3-methoxy-1-methyl-propyl]pyrazolo[1,5-a][1,3,5]triazin-4-yl]-2,3,4,9-tetrahydro-1H-carbazol-3-amine], the IC50 was under 0.5 µM.

With `COCC[C@@H](C)c1cnn2c(N[C@@H]3CCc4[nH]c5ccccc5c4C3)nc(-c3cncc(F)c3)nc12` [Compound I-65b, (3R)—N-[2-(5-fluoro-3-pyridyl)-8-[(1R)-3-methoxy-1-methyl-propyl]pyrazolo[1,5-a][1,3,5]triazin-4-yl]-2,3,4,9-tetrahydro-1H-carbazol-3-amine], the IC50 was under 0.5 µM.

The compound `CC(C)c1cnn2c(N[C@@H]3CCc4c(cc[nH]c4=O)C3)nc(-c3cncc(F)c3)nc12` [Compound I-66a, (6R)-6-[[2-(5-Fluoro-3-pyridyl)-8-isopropyl-pyrazolo[1,5-a][1,3,5]triazin-4-yl]amino]-5,6,7,8-tetrahydro-2H-isoquinolin-1-one] gave an IC50 of over 1.5 µM.

Turning to `CC(C)c1cnn2c(N[C@H]3CCc4c(cc[nH]c4=O)C3)nc(-c3cncc(F)c3)nc12` [Compound I-66b, (6S)-6-[[2-(5-fluoro-3-pyridyl)-8-isopropyl-pyrazolo[1,5-a][1,3,5]triazin-4-yl]amino]-5,6,7,8-tetrahydro-2H-isoquinolin-1-one], the IC50 is over 1.5 µM.
